From PMC9260081, “Design, Synthesis, and Evaluation of Anticonvulsant Activities of New Triazolopyrimidine Derivatives” (Frontiers in Chemistry, 2022)
Where two headings read alike, the source gives them in different places.

Tests used:
[1] = system: ability to maintain equilibrium on rotating rod; assay: Neurotoxicity screening (rotarod test); type: in vivo; settings: i.p., dosages 30, 100, 300 mg/kg
Description: (§1) Male Kunming mice with weights from 18 to 22 g were used in all the pharmacological experiments. The mice were housed in the standard cages with 10 each, where a controlled temperature (25°C ± 2°C) with a 12 h light/dark cycle was maintained. All animals had free access to food and water. All experiments and procedures involving animals were carried out according to the Guide for the Care and Use of Laboratory Animals (National Academies Press, Washington, D.C., United States). Approval from the local medical ethical committee was obtained before the experiment.
The rotarod test was used to evaluate the neurotoxicity of the synthesized compounds. Before the formal experiments, mice were trained to climb on a rotating rod of diameter 3.2 cm with the rotation speed of 10 rpm. Test compounds in the three doses were intraperitoneally injected into the trained mice. […] The rough neurotoxic dose was obtained in which mice cannot maintain equilibrium on the rod for at least 1 min. The quantitative neurotoxic dose (TD50) of the test compounds was measured and calculated with the same method described in the MES test.

MES-induced seizures = assay: Maximal electroshock seizure (MES) test; type: in vivo, mice; settings: Mus musculus, ip, mice, dosages 30, 100, 300 mg/kg, read-out: MES screening, minimum dose whereby bioactivity was demonstrated in half or more of the mice
Description: as §1
In the MES test, mice were subjected to ear stimulation using a 0.2 s 60-Hz 50-mA alternating current to elicit seizures. Tonic hind limb extension was considered as the seizure occurring, and the vanishing of tonic hind limb extension indicates the protection against the MES-induced seizures. Mice were injected intraperitoneally with test compounds at doses of 300, 100, and 30 mg/kg to evaluate their general anticonvulsant activity. Half and 4 h intervals were chosen to test the anti-MES activity. […] A series of doses of the tested compounds were injected into the mice with 10 in one group.

PTZ-induced seizures = assay: Subcutaneous pentylenetetrazole (PTZ) test; type: in vivo, mice; settings: Mus musculus, ip, mice, dosages 30, 100, 300 mg/kg, read-out: PTZ screening, minimum dose whereby bioactivity was demonstrated in half or more of the mice
Description: as §1
In the PTZ test, mice were subcutaneously administered with PTZ at the dose of 85 mg/kg. At this dose, mice can be elicited a threshold seizure characterized by an episode of clonic spasms and tonic spasms. After being treated with test compounds at doses of 300, 100, and 30 mg/kg, the mice were considered protected if a single episode of clonic spasms of more than 5 s duration was not obtained. The quantitative anticonvulsant activity (ED50) in the PTZ model was determined and calculated with the same method described in the MES test.

Clc1ccccc1-c1ccnc2ncnn12 [Compound 3c, 7-(2-Chlorophenyl)-[1,2,4]triazolo[1,5-a]pyrimidine]
NT screening (rotarod), minimum neurotoxic dose in half or more of the mice ([1]; 0.5 h after injection): — (A dash indicates the absence of anticonvulsant activity and neurotoxicity at the maximum dose administered (300 mg/kg))
NT screening (rotarod), minimum neurotoxic dose in half or more of the mice ([1]; 4 h after injection): — (A dash indicates the absence of anticonvulsant activity and neurotoxicity at the maximum dose administered (300 mg/kg))
minimal effective dose (MES-induced seizures; 0.5 h after injection): 100 mg/kg
minimal effective dose (MES-induced seizures; 4 h after injection): > 300 mg/kg
minimal effective dose (PTZ-induced seizures; 0.5 h after injection): 100 mg/kg
minimal effective dose (PTZ-induced seizures; 4 h after injection): > 300 mg/kg
melting point: 148 to 149 °C
